This note sets out measurements from doi:10.1101/2023.12.22.573011v1 (biorxiv, 2023).

Broadly, the Kd is the constant that tells how readily two partners part at equilibrium.

This assay has as its target full-length TDP-43 (TDP-43) (Homo sapiens, UniProt Q13148). Nature of the assay: isothermal titration calorimetry. The assay is classed as binding. On the technique in general: ITC needs no label: the signal is the heat of the interaction.

Sequence of full-length TDP-43 (TDP-43) (Q13148 whole entry): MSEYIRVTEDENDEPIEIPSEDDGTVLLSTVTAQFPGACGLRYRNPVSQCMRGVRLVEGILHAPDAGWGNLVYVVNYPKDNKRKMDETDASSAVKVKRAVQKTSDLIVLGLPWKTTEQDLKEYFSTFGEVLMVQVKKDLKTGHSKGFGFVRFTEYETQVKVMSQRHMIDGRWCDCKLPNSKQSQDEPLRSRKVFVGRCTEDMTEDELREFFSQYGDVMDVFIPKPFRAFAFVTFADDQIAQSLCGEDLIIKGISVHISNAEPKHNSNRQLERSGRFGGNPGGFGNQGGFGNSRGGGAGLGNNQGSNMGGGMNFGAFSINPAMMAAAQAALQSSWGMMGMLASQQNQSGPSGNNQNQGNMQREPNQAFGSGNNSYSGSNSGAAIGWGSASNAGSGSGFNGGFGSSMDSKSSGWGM

Consider `O=C(O[C@@H]1Cc2c(O)cc(O)cc2O[C@@H]1c1cc(O)c(O)c(O)c1)c1cc(O)c(O)c(O)c1` [epigallocatechin gallate], for which the Kd was 7.8 µM.
